# Marks after values point to notes of the source that are not given here.
# Legend:
# [1] = tested on: OVCAR-8; assay: NCI-60 five-dose screen; type: cell-based, human; settings: Ovarian cancer
# Excerpt: (§2) The proligands HL^1–HL^3 and their corresponding metal complexes 1–8 prepared in this study were subjected to evaluation of their anticancer potential, including selectivity towards specific types of cancer: leukemia, non-small cell lung (NSCLC), colon, central nervous system (CNS), melanoma, ovarian, renal, prostate and breast cancers, by the National Cancer Institute's Developmental Therapeutics Program. This evaluation involved the utilization of the NCI 60 human tumor cell line panel.[57]
# (§3) The NCI-60 SRB assay was performed as described previously.[76] GI50 values (the concentration of the metal complex causing 50% growth inhibition), TGI value (the concentration of the complex causing 0% cell growth), and LC50 (the concentration of the complex causing 50% cell death) were interpolated from dose–response curves that were plots of percentage cell growth versus concentration of test compounds.
# [2] = tested on: T-47D; assay: NCI-60 five-dose screen; type: cell-based, human; settings: Breast cancer
# Excerpt: as §2, §3
# [3] = tested on: NCI-H522; assay: NCI-60 five-dose screen; type: cell-based, human; settings: Non-Small Cell Lung Cancer
# Excerpt: as §2, §3
# [4] = Cyclic voltammetry in DMSO/nBu4NPF6; type: physicochemical; settings: scan rate 100 mV s^−1
# Procedure: Cyclic voltammetric experiments with 0.5 mM solutions of 1–3 in 0.1 M nBu4NPF6 (puriss quality from Fluka (Schwerte, Germany), dried under reduced pressure at 70 °C for 24 h before use) supporting electrolyte in DMSO (SeccoSolv max. 0.025% H2O, Merck) were performed under argon atmosphere using a three-electrode setup with a platinum disk or a glassy carbon disk working electrode (from Ionode, Australia), platinum wire as a counter electrode, and silver wire as a pseudo reference electrode. All potentials in voltammetric studies were quoted vs. ferricenium/ferrocene (Fc^+/Fc) redox couple. A Heka PG310USB (Lambrecht, Germany) potentiostat with a PotMaster 2.73 software package served for the potential control in voltammetric studies. In situ ultraviolet-visible-near-infrared (UV–Vis–NIR) spectroscopic and spectroelectrochemical measurements were performed on a spectrometer Avantes (Model AvaSpec-2048_14-USB2) in 1 cm quartz cuvette or the spectroelectrochemical cell kit ([…]3) with the Pt-microstructured honeycomb working electrode, purchased from Pine Research Instrumentation (Lyon, France). The cell was positioned in the CUV-UV Cuvette Holder (Ocean Optics, Ostfildern, Germany) connected to the diode-array UV–Vis–NIR spectrometer by optical fibres. UV–Vis–NIR spectra were processed using the AvaSoft 7.7 software package. Halogen and deuterium lamps were used as light sources (Avantes, Model AvaLight-DH-S-BAL, Apeldoorn, The Netherlands). EPR spectra were measured with a X-band cw-EPR spectrometers EMX and EMX plus (Bruker) at room temperature or 100 K. Spectroelectrochemical experiments were performed in a flat cell equipped with a Pt mesh working electrode using nBu4NPF6/DMSO electrolyte. Measurements in frozen solvent glass were done in MeCN/DMF 1 : 1 v/v. Complexes 4 and 5 were dissolved under ambient conditions, and complex 3 was reduced with a stoichiometric equivalent of cobaltocene in a N2 glovebox (N2 < 2 ppm, H2O < 1 ppm). The MeCN/DMF solutions were flash frozen in liquid N2 prior to transfer to the N2 flow cryostat precooled at 100 K inside the cavity of the EPR resonator. EPR spectra were analyzed with the Easyspin toolbox,[75] running on Matlab.
# [5] = tested on: microtubule system in A549 cancer cells; assay: α-Tubulin immunostaining; type: cell-based, human; settings: 80 μM, 24 h
# Procedure: Since we found remarkable antiproliferative activity exerted by some of the tested compounds by the BrdU assay, and it was also shown that some of the compounds might interfere with tubulin polymerization in cell-free tests, we examined whether the metal complexes or the proligands influence the structure of the microtubule system in A549 cancer cells. For this purpose, the cells were treated with either DMSO, HL^1–HL^3, or with complexes 1, 2, 4 and 5, or were left untreated, followed by α-tubulin immunostaining (Fig. 11). In the untreated samples normal cell morphology and filamentous microtubule structure was observed.
# The structure of microtubules was visualized by α-tubulin immunostaining on A549 cells. For this, 5 × 10^4 cells per well were seeded onto coverslips in 24-well plates. […] Then samples were fixed with 4% formaldehyde (Molar Chemicals, Halásztelek, Hungary), permeabilized with 0.3% Triton-X-100 (Calbiochem, Merck Millipore, Darmstadt, Germany) and were blocked using 5% BSA (Sigma-Aldrich, St Louis, Missouri, USA) diluted in PBS. Then the cells were incubated with anti-α-tubulin antibody (Thermo Fisher Scientific, monoclonal mouse antibody, DM1A, Waltham, Massachusetts, USA) in a 1 : 300 dilution in 1% BSA followed by Alexa 488 fluorophore-conjugated goat anti-mouse secondary antibody (Abcam, Cambridge, UK) in a 1 : 600 dilution in 1% BSA. […]
# [6] = tested on: NCI/ADR-RES; assay: NCI-60 five-dose screen; type: cell-based, human; settings: Ovarian cancer
# Excerpt: as §2, §3
# [7] = tested on: CCRF-CEM; assay: NCI-60 five-dose screen; type: cell-based, human; settings: Leukemia
# Excerpt: as §2, §3
# [8] = tested on: purified tubulin; assay: Inhibition of tubulin polymerization; type: biochemical; settings: read-out: Inhibition of tubulin polymerization IC50 ± SD
# Excerpt: As a reference for comparison, combretastatin A-4 (CA-4) and Cu(HL^1)Cl2 were used.
# (§1) The methods used for determination of the IC50 values for tubulin assembly and inhibition of [^3H]colchicine binding were as described previously.[77]
# [9] = tested on: MDA-MB-468; assay: NCI-60 five-dose screen; type: cell-based, human; settings: Breast cancer
# Excerpt: as §2, §3
# [10] = tested on: tubulin (colchicine site); assay: Inhibition of [3H]colchicine binding to tubulin; settings: tubulin 0.5 μM, [3H]colchicine 5 μM
# Excerpt: as §1
# [11] = tested on: DU-145; assay: NCI-60 five-dose screen; type: cell-based, human; settings: Prostate cancer
# Excerpt: (§4) GI50 values (the concentration of the metal complex causing 50% growth inhibition), TGI value (the concentration of the complex causing 0% cell growth), and LC50 (the concentration of the complex causing 50% cell death) were interpolated from dose–response curves that were plots of percentage cell growth versus concentration of test compounds.
# [12] = tested on: NCI-H226; assay: NCI-60 five-dose screen; type: cell-based, human; settings: Non-Small Cell Lung Cancer
# Excerpt: as §2, §3
# [13] = tested on: K-562; assay: NCI-60 five-dose screen; type: cell-based, human; settings: Leukemia
# Procedure: This evaluation involved the utilization of the NCI 60 human tumor cell line panel.[57]
# as §3
# [14] = tested on: ACHN; assay: NCI-60 five-dose screen; type: cell-based, human; settings: Renal cancer
# Excerpt: as §2, §3
# [15] = tested on: COLO 205; assay: NCI-60 five-dose screen; type: cell-based, human; settings: Colon cancer
# Excerpt: as §2, §3
# [16] = tested on: PC-3; assay: NCI-60 five-dose screen; type: cell-based, human; settings: Prostate cancer
# Excerpt: as §4
# [17] = tested on: NCI-H322M; assay: NCI-60 five-dose screen; type: cell-based, human; settings: Non-Small Cell Lung Cancer
# Excerpt: as §2, §3
# [18] = tested on: OVCAR-5; assay: NCI-60 five-dose screen; type: cell-based, human; settings: Ovarian cancer
# Excerpt: as §2, §3
# [19] = tested on: SF-268; assay: NCI-60 five-dose screen; type: cell-based, human; settings: CNS cancer
# Excerpt: as §2, §4
# [20] = tested on: NCI-H23; assay: NCI-60 five-dose screen; type: cell-based, human; settings: Non-Small Cell Lung Cancer
# Excerpt: as §2, §3
# [21] = Solution stability by UV–vis spectrophotometry; type: physicochemical
# [22] = tested on: RXF 393; assay: NCI-60 five-dose screen; type: cell-based, human; settings: Renal cancer
# Excerpt: as §2, §3
# [23] = tested on: SNB-75; assay: NCI-60 five-dose screen; type: cell-based, human; settings: CNS cancer
# Excerpt: as §2, §3
compound,measurement,setting,value
"CC(=NN=C([S-])Nc1cc(C)c(O)c(C)c1)c1cccc(CN2CCOCC2)n1.CC(=NN=C([S-])Nc1cc(C)c(O)c(C)c1)c1cccc(CN2CCOCC2)n1.O=[N+]([O-])[O-].[Fe+3] [Complex 4, [Fe^III(L^2)2]NO3]",GI50,[1],2500 nM
same,GI50,[2],1900 nM
same,GI50,[3],2070 nM
same,1st oxidation potential (peak potential Ep),[4],0.40^i* volts vs. Fc^+/Fc
same,1st reduction potential (E1/2 or Ep),[4],−0.35^r volts vs. Fc^+/Fc
same,2nd reduction potential (E1/2 or Ep),[4],−1.85^q volts vs. Fc^+/Fc
same,effect on microtubule structure and cell morphology,[5],even greater disruption
same,GI50,[6],2980 nM
same,GI50,[7],2220 nM
same,IC50,[8],3400 ± 60 nM
same,GI50,[9],1560 nM
same,"Inhibition of colchicine binding, % inhibition ± SD",[10]; 5 μM inhibitor,3.4 ± 5%
same,"Inhibition of colchicine binding, % inhibition ± SD",[10]; 25 μM inhibitor,17 ± 4%
same,GI50,[11],6290 nM
same,GI50,[12],2540 nM
same,GI50,[13],2000 nM
same,GI50,[14],3100 nM
same,GI50,[15],1530 nM
same,GI50,[16],2430 nM
same,GI50,[17],3260 nM
same,GI50,[18],2740 nM
same,GI50,[19],2360 nM
same,GI50,[20],2230 nM
same,stability of Fe(III) complexes,[21]; DMSO and water at pH 7.4,slow partial dissociation
same,stability of Fe(III) complexes,[21]; pH 2,complete dissociation
same,stability of Fe(III) complexes,"[21]; pH 11.7, anoxic conditions",the changes were minimal
same,GI50,[22],1950 nM
same,GI50,[23],1580 nM

# Source: article PMC11264232, “Are the metal identity and stoichiometry of metal complexes important for colchicine site binding and inhibition of tubulin polymerization?” (Dalton Transactions (Cambridge, England : 2003), 2024)
